{
  "source": "ChEMBL document CHEMBL1201862",
  "about": "“PubChem BioAssay data set” (2004)",
  "assay_in_all_cases": "growth of human tumour cells (NCI), 48 h",
  "key": {"DMS-273": {"test_system": "DMS-273"}, "IGROV-1": {"test_system": "IGROV-1"}, "K562": {"test_system": "K562"}, "SF-295": {"test_system": "SF-295"}, "SF-268": {"test_system": "SF-268"}, "ACHN": {"test_system": "ACHN"}, "HT-29": {"test_system": "HT-29"}, "A549": {"test_system": "A549"}, "NCI/ADR-RES": {"test_system": "NCI/ADR-RES"}, "MDA-MB-231": {"test_system": "MDA-MB-231"}, "HCC 2998": {"test_system": "HCC 2998"}, "HOP-62": {"test_system": "HOP-62"}, "SNB-19": {"test_system": "SNB-19"}, "HCT-15": {"test_system": "HCT-15"}, "DLD-1": {"test_system": "DLD-1"}, "RPMI-8226": {"test_system": "RPMI-8226"}, "SK-MEL-5": {"test_system": "SK-MEL-5"}, "MCF7": {"test_system": "MCF7"}, "SW-620": {"test_system": "SW-620"}, "TK-10": {"test_system": "TK-10"}},
  "note": "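Results reflect a 48-hour exposure of cells in 96-well plates to compound at five concentrations. Abbreviation: GI50, concentration required for 50% inhibition of growth.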 Calls of active or inactive are those of the source. Rule as the data show it: active = GI50 up to about 1.1 µM and inactive = higher.",
  "data": [
    {"smiles": "CCN(CC)CCCNc1ccc2nnn3c4ccc(O)cc4c(=O)c1c23", "values": [
      {"measurement": "GI50", "setting": "DMS-273", "value": "3.44 µM (inactive)"},
      {"measurement": "GI50", "setting": "IGROV-1", "value": "4.86 µM (inactive)"},
      {"measurement": "GI50", "setting": "K562", "value": "7.23 µM (inactive)"},
      {"measurement": "GI50", "setting": "SF-295", "value": "9.51 µM (inactive)"},
      {"measurement": "GI50", "setting": "SF-268", "value": "5.3 µM (inactive)"},
      {"measurement": "GI50", "setting": "ACHN", "value": "3.34 µM (inactive)"},
      {"measurement": "GI50", "setting": "HT-29", "value": "2.65 µM (inactive)"},
      {"measurement": "GI50", "setting": "A549", "value": "1.58 µM (inactive)"},
      {"measurement": "GI50", "setting": "NCI/ADR-RES", "value": "7.14 µM (inactive)"},
      {"measurement": "GI50", "setting": "MDA-MB-231", "value": "7.74 µM (inactive)"},
      {"measurement": "GI50", "setting": "HCC 2998", "value": "9.06 µM (inactive)"},
      {"measurement": "GI50", "setting": "HOP-62", "value": "10.7 µM (inactive)"},
      {"measurement": "GI50", "setting": "SNB-19", "value": "10.1 µM (inactive)"},
      {"measurement": "GI50", "setting": "HCT-15", "value": 5.06, "unit": "µM"},
      {"measurement": "GI50", "setting": "DLD-1", "value": "3.48 µM (inactive)"},
      {"measurement": "GI50", "setting": "RPMI-8226", "value": "3.28 µM (inactive)"},
      {"measurement": "GI50", "setting": "SK-MEL-5", "value": "7.55 µM (inactive)"},
      {"measurement": "GI50", "setting": "MCF7", "value": "14 µM (inactive)"},
      {"measurement": "GI50", "setting": "SW-620", "value": "2.69 µM (inactive)"},
      {"measurement": "GI50", "setting": "TK-10", "value": "3.28 µM (inactive)"}
    ]}
  ]
}
